Key:
A549 cells [1] = experiment: Mitochondrial membrane potential by TMRM, flow cytometry; type: cell-based; conditions: A549, 15-24 h
Method: (1) Inoculation of tumor cells in plates: A549 cells and CT26 cells in the logarithmic growth phase were prepared into a cell suspension respectively, inoculated into a 6-well plate as per 1×10^5 cells/well, 2 ml of medium was added to each well, and cultured overnight in a 5% CO2 incubator at 37° C.
(2) Different samples added to act on tumor cells: the pMVA-1 plasmid, the DOTAP cationic lipid and the pMVA-1/DOTAP complex were added to the tumor cells cultured in Step (1) respectively, and incubated at 37° C. for 15 h, 18 h, 21 h and 24 h.
(3) Preparation of TMRM dyeing working fluid (made by Life Technologies): the TMRM mother liquor was diluted with PBS at a ratio of 1:100000 to obtain the TMRM dyeing working fluid. […]
(5) The tumor cells in Step (4) were collected and treated with different samples for different times, and the tumor cells with mitochondrial membrane potential changes were analyzed by flow cytometry.
As a potentiometric fluorescence probe, tetramethylrhodamine methyl ester (TMRM) entered the cells and was cleaved by cell lactonase to produce tetramethylrhodamine, indicating strong fluorescence after they had entered mitochondria. […] Therefore, the open state of mitochondrial membrane channel pores can be verified by testing the changes of fluorescence intensity in mitochondria of tumor cells.

lysosomes of A549 cells = experiment: Lysosomal membrane permeability by FITC-Dextran cell localization; type: cell-based; conditions: 3 h, confocal microscope; dispersed = increased LMP
Method: (1) Inoculation of A549 cells in plates: A549 cells in the logarithmic growth phase were prepared into a cell suspension, inoculated into a 6-well plate as per approximately 1×10^5 cells/well. Then, 2 ml of medium was added to each well, and cultured overnight in a 5% CO2 incubator at 37° C.
(2) FITC-Dextran (made by Sigma) with a final concentration of 1 mg/ml was added to the cell medium in Step (1), and incubated at 37° C. for 4 h in the dark.
(3) The cells in Step (2) were washed twice with sterile PBS, 1640 medium was added, thus allowing A549 cells to be treated with the medium (blank control group), pMVA-1 plasmid (control group PMVA), DOTAP cationic lipid (control group DOTAP) and pMVA-1/DOTAP complex (experimental group PMVA-DOTAP) respectively, and incubated at 37° C. for 3 h in the dark.
(4) The cells in Step (3) were washed twice with PBS, stabilized with 4% paraformaldehyde for 10 min, washed twice with PBS, sealed. Fluorecytes were observed under a confocal microscope and the images were saved.

A549 cells [2] = experiment: A549 cell death test by PI-AnnexinV (fluorescence microscope); type: cell-based; conditions: A549, 24 h; complex mass ratio 1:6
Method: A549 cells in the logarithmic growth phase were prepared into single cell suspension, inoculated into a 6-well plate as per approximately 1×10^5 cells per well. Then, 2 ml of medium was added to each well and cultured in a 5% CO2 incubator at 37° C. for 24-36 h.
a. 5 mg/ml of pMVA-1 plasmid vector solution was added to 100 μl of 1640 serum-free medium for preparing a pMVA-1 plasmid vector control group;
b. 1 mg/ml of DOTAP cationic lipid was dissolved in 100 μl of 1640 serum-free medium for preparing a DOTAP cationic lipid control group;
c. the pMVA-1/DOTAP complex with a mass ratio of 1:6 prepared in Example 5 was dissolved in 100 μl of 1640 serum-free medium for preparing a pMVA-1/DOTAP complex experimental group.
Some of the medium was pipetted from the 6-well plate in Step (1) until the medium in each well reached 900 μl. The pMVA-1/DOTAP complex (pMVA-DOTAP) (prepared in Step (2)) of the experimental group as well as the pMVA-1 plasmid vector (PMVA) and DOTAP cationic lipid (DOTAP) of the control group was added to A549 cells cultured in Step (1) respectively to make the total volume of 1 ml. At the same time, a blank control group containing only medium was made, and incubated in a 5% of CO2 incubator at 37° C. for 24 h. […]
The cells stained with PI and Annexin V in Step (4) were washed once with PBS and observed under a fluorescence microscope. […]

lysosomes in A549 cells = experiment: Lysosomal acidity gradient by Lysotracker Red / YOYO1 probes; type: cell-based; conditions: flow cytometry, 1 h, 3 h, 6 h and 9 h
Method: a. Preparation of YOYO1 working fluid: the YOYO1 stock solution was diluted with 1640 serum-free medium at the volume ratio of 1:200;
b. The pMVA-1 plasmid was added to the YOYO1 working fluid prepared in the Step (1) according to a volume ratio of 1:40, and incubated at 37° C. for 1 h.
a. The YOYO1 fluorescent labeled pMVA-1 plasmid prepared in Step 1 was mixed with the DOTAP cationic lipid to form a complex;
b. The YOYO1 fluorescently labeled pMVA-1/DOTAP complex prepared in Step a was added to A549 cells, followed by making two control groups i.e. YOYO1 fluorescently labeled pMVA-1 plasmid group (PMVA) and DOTAP cationic lipid group (DOTAP), and blank control group containing cell culture fluid only.
(1) Preparation of Lysotracher Red working fluid: the Lysotracher Red stock solution was added to the cell culture fluid at a volume ratio of 1:20000 and incubated at 37° C.
a. The A549 cell culture fluid in Step 1 was removed, the Lysotracker Red staining working fluid prepared in Step (1) was added to the cells, and incubated at 37° C. for 1 h; […]
c. A549 cells in Step b were collected and the number of fluorescent cells were quantitatively tested by flow cytometry.

[3] = system: mouse cervical cancer cell line U14; experiment: Mice U14 subcutaneous model, complex combined with chemotherapy; type: in vivo, C57 female mice; conditions: U14 sc
Method: C57 female mice aged 6-8 weeks were raised. The mouse cervical cancer cell line U14 cultured to the logarithmic growth phase was prepared into a cell suspension and the cell density was 2×10^7/ml. Experimental animals were subcutaneously injected on the right back, with an injection system of 100 μl per mouse. When the tumor could be palpated (tumor volume is about 4 mm×4 mm×3 mm, i.e. the 5th day after inoculation), the mice were randomly divided into 6 groups, and administrated every 3 days for a total of 8 times according to the grouping and treatment scheme in Table 16. The tumor volume was measured every three days. After administration for 8 times, the mice were killed and subcutaneous tumors were dissected for examination.
Wherein, the administration volume is 100 μl per mouse, DDP is intraperitoneally administrated once a week. DDP is Cisplatin and LP is pMVA-1/DOTAP complex.

## CCCCCCCC/C=C\CCCCCCCC(=O)OCC(C[N+](C)(C)C)OC(=O)CCCCCCC/C=C\CCCCCCCC (centres unmarked) [DOTAP, 1,2-dioleoyl-3-trimethylammonium-propane]
A549 cells [1]
  mitochondrial membrane potential: did not change significantly
Lysosomes of A549 cells
  distribution of FITC-Dextran in cytoplasm of A549 cells: distributed in dots
A549 cells [2]
  PI-positive and AnnexinV-positive cells: did not indicate obvious PI uptake and AnnexinV-labeled positive cells
Lysosomes in A549 cells
  Lysotracker Red fluorescence intensity: did not change significantly
[3]
  lymphocyte infiltration in tumor tissue: less common
